The values that follow come from ChEMBL document CHEMBL1201862, “PubChem BioAssay data set” (2004).

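Each compound was tested at five concentrations against cells in 96-well plates for 48 hours. GI50 marks 50% less growth.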 Calls of active or inactive are those of the source. Cut-off read from the data, not from the text of the source: active = GI50 up to about 1.1 µM and inactive = higher.

Test systems include 786-0; CAKI-1; COLO 205; HOP-62; LOX IMVI; MCF7; MDA-MB-435; MDA-N; OVCAR-3; OVCAR-5; RXF 393; SF-268; SF-539; SK-MEL-28; SK-OV-3; SN12C; SW-620; UACC-257; HCC 2998.
Assay in all cases: NCI anticancer screen, dose series, 48 h

As to `CN(C)CCSS(=O)(=O)O`, the GI50 was > 100 µM (inactive) with 786-0; > 100 µM (inactive) in the experiment on CAKI-1; > 100 µM (inactive) in the experiment on COLO 205; 15.4 µM (inactive) in the experiment with HOP-62; 40.2 µM (inactive) in the experiment on LOX IMVI; > 100 µM (inactive) with MCF7. The GI50 with MDA-MB-435 is > 100 µM (inactive); with MDA-N, > 100 µM (inactive); in the experiment on OVCAR-3, 9.16 µM (inactive); in the experiment with OVCAR-5, > 100 µM (inactive); with RXF 393, > 100 µM (inactive); in the experiment with SF-268, > 100 µM (inactive). The GI50 in the experiment on SF-539 is > 100 µM (inactive); in the experiment on SK-MEL-28 it was > 100 µM (inactive); in the experiment on SK-OV-3, 29.4 µM (inactive); in the experiment on SN12C it was > 100 µM (inactive); in the experiment on SW-620 it was > 100 µM (inactive).

With `Cc1[nH]n(-c2nc(O)c(C)c(=O)[nH]2)c(=O)c1CCO`, the GI50 with 786-0, in the experiment on CAKI-1, in the experiment with COLO 205, in the experiment with MCF7, with MDA-MB-435 and in the experiment with MDA-N was > 100 µM (inactive) each time. The GI50 is > 100 µM (inactive) in the experiment on OVCAR-5; 22.6 µM (inactive) in the experiment on RXF 393; > 100 µM (inactive) in the experiment on SF-268; > 100 µM (inactive) in the experiment with SF-539; > 100 µM (inactive) in the experiment with SK-MEL-28; > 100 µM (inactive) with SK-OV-3. In addition, the GI50 in the experiment with SN12C, in the experiment on SW-620 and in the experiment with UACC-257 was > 100 µM (inactive) each time.

With `CCCNC(=O)c1cc(NC(=O)c2cc(NC(=O)/C=C/c3ccccc3)c(OC)c(OC)c2)c(OC)c(OC)c1`, the GI50 is 3.61 µM (inactive) in the experiment with 786-0; > 100 µM (inactive) in the experiment on COLO 205; 4.41 µM (inactive) in the experiment with HOP-62; 2.96 µM (inactive) in the experiment with LOX IMVI; 7.98 µM (inactive) in the experiment with MCF7; 12 µM (inactive) in the experiment on MDA-MB-435. Moreover, the GI50 with MDA-N is 13.8 µM (inactive); with OVCAR-3, 4.01 µM (inactive); with OVCAR-5, 12.7 µM (inactive); in the experiment with RXF 393, 2.42 µM (inactive); in the experiment on SF-268, 2.05 µM (inactive); with SF-539 it was 6.14 µM (inactive). For the same molecule, the GI50 with SK-MEL-28 is 14.5 µM (inactive); in the experiment on SK-OV-3 it was 7.62 µM (inactive); with SN12C, 0.248 µM (active); with SW-620, > 100 µM (inactive); in the experiment on UACC-257, 14.2 µM (inactive).

For the molecule `CN(C)CCOc1ccc([N+](=O)[O-])c2cccnc12`, the GI50 in the experiment with 786-0 is > 100 µM (inactive); with CAKI-1, > 100 µM (inactive); with COLO 205 it was 43 µM (inactive); with HCC 2998 it was > 100 µM (inactive); with HOP-62 it was > 100 µM (inactive); in the experiment on MCF7 it was > 100 µM (inactive). The GI50 was > 100 µM (inactive) in the experiment on MDA-MB-435; 79.1 µM (inactive) in the experiment on MDA-N; > 100 µM (inactive) with OVCAR-3; > 100 µM (inactive) in the experiment with OVCAR-5; > 100 µM (inactive) in the experiment with SF-268; > 100 µM (inactive) in the experiment on SF-539. The GI50 with SK-MEL-28 is > 100 µM (inactive); in the experiment on SK-OV-3, > 100 µM (inactive); in the experiment on SN12C, 60.4 µM (inactive); in the experiment with SW-620, 78.7 µM (inactive); in the experiment on UACC-257, 86.9 µM (inactive).

`COC(=O)[C@]12CSC[C@H]1C[C@H](c1cccc3ccccc13)N2`: the GI50 in the experiment on 786-0 is > 100 µM (inactive); in the experiment on CAKI-1, > 100 µM (inactive); in the experiment with COLO 205, > 100 µM (inactive); in the experiment on HCC 2998, > 100 µM (inactive); with HOP-62, > 100 µM (inactive); in the experiment with LOX IMVI, 94.6 µM (inactive). For the same molecule, the GI50 is 57.7 µM (inactive) with MCF7; > 100 µM (inactive) in the experiment with MDA-MB-435; > 100 µM (inactive) in the experiment on MDA-N; > 100 µM (inactive) with OVCAR-3; > 100 µM (inactive) in the experiment on OVCAR-5; > 100 µM (inactive) in the experiment with SF-539. Besides, the GI50 in the experiment on SK-MEL-28, with SK-OV-3, in the experiment on SN12C, with SW-620 and in the experiment on UACC-257 was > 100 µM (inactive) each time.

Consider `Cc1cc(O)c2c(c1)C(C1OC(CO)C(O)C(O)C1O)c1cc(O)cc(O)c1C2=O` (stereo unspecified), for which the GI50 in the experiment on 786-0, in the experiment on COLO 205, in the experiment with HCC 2998, in the experiment on HOP-62, in the experiment with MCF7 and with MDA-MB-435 was > 100 µM (inactive) in each case. The GI50 in the experiment on MDA-N, in the experiment with OVCAR-3, in the experiment with OVCAR-5, with SF-268, in the experiment on SK-MEL-28 and with SK-OV-3 was > 100 µM (inactive) in each case. Moreover, the GI50 in the experiment on SN12C, in the experiment with SW-620 and with UACC-257 was > 100 µM (inactive) throughout.

On to `CC1=NNC(=O)C1C1CC(c2c[nH]c3ccccc23)=NN=C1Cl` (stereo unspecified), for which the GI50 in the experiment with 786-0 is 49.9 µM (inactive); with CAKI-1, > 100 µM (inactive); in the experiment on COLO 205, 28.1 µM (inactive); in the experiment on HOP-62, > 100 µM (inactive); with LOX IMVI, 33.3 µM (inactive); in the experiment on MDA-MB-435, 48.9 µM (inactive). Also, the GI50 is 54.7 µM (inactive) in the experiment with MDA-N; 62.1 µM (inactive) with OVCAR-3; > 100 µM (inactive) with OVCAR-5; 45.8 µM (inactive) with RXF 393; 55.6 µM (inactive) in the experiment on SF-268; 55.6 µM (inactive) with SF-539. Further, the GI50 in the experiment with SK-MEL-28 is 87.5 µM (inactive); in the experiment with SK-OV-3, > 100 µM (inactive); with SN12C it was 82 µM (inactive); in the experiment on SW-620, 63.5 µM (inactive); with UACC-257, > 100 µM (inactive).

Consider `CSC1=N/C(=C\c2ccccc2)C(=O)N1CN1CCOCC1`, for which the GI50 in the experiment with 786-0 was 41.1 µM (inactive); in the experiment with COLO 205, 54.5 µM (inactive); in the experiment on HOP-62 it was > 100 µM (inactive); in the experiment on LOX IMVI, 31.6 µM (inactive); with MCF7, 28.3 µM (inactive); in the experiment with MDA-MB-435 it was 93.8 µM (inactive). The GI50 was > 100 µM (inactive) with MDA-N; > 100 µM (inactive) with OVCAR-3; > 100 µM (inactive) in the experiment on OVCAR-5; 61.5 µM (inactive) in the experiment on SF-268; > 100 µM (inactive) in the experiment with SK-MEL-28; > 100 µM (inactive) with SK-OV-3. For the same molecule, the GI50 is > 100 µM (inactive) in the experiment with SN12C and 41.6 µM (inactive) in the experiment on SW-620.

For the molecule `c1ccc([B-]2(c3ccccc3)NCCCO2)cc1`, the GI50 in the experiment with 786-0 was 56.9 µM (inactive); with CAKI-1, 40.6 µM (inactive); with COLO 205, 24.9 µM (inactive); with HOP-62, > 100 µM (inactive); in the experiment with LOX IMVI, 59.4 µM (inactive); with MDA-MB-435, 46.3 µM (inactive). Moreover, the GI50 is 42.7 µM (inactive) with MDA-N; 35.1 µM (inactive) in the experiment with OVCAR-3; > 100 µM (inactive) in the experiment on OVCAR-5; 28.8 µM (inactive) in the experiment with RXF 393; > 100 µM (inactive) with SF-268; 33.3 µM (inactive) in the experiment with SF-539. The GI50 is 56.8 µM (inactive) in the experiment on SK-MEL-28; 85.7 µM (inactive) in the experiment with SK-OV-3; 70.8 µM (inactive) with SN12C; 49.5 µM (inactive) in the experiment on SW-620; 49.9 µM (inactive) in the experiment on UACC-257.
